Assay results: patent US10239957B2, “Peptide containing conjugates for dual molecular delivery of oligonucleotides” (Merck Sharp & Dohme Corp., priority 2013, dated 2019)
Where no end group is shown, it is not given here. [ ]: non-standard residue; d: D form. TGN = not defined here

Test system: CTNNB1
Test: In vitro DMD assay: mRNA silencing enhancement by peptide conjugates after siRNA-IV treatment
Type: cell-based
Details: primary mouse hepatocytes, siRNA-IV 125 nM baseline
Experimental: Cryopreserved primary Mouse hepatocytes (Bioreclamation, LLC) were placed into Collagen Type I coated 96-well plates at 25,000 cells per well in serum-containing InVitroGRO CP media (Bioreclamation, LLC) and allowed 5 hours to attach. Media was replaced with InVitroGRO HI media and cells were treated with siRNA-IV at 125 nM [siRNA] for 1 hour. Media was replaced with InVitroGRO HI media and cells were treated for approximately 16 hours with experimental Peptide conjugates at various concentrations to establish a dose-response curve. Peptide conjugates were washed out after 16 hours with InVitroGRO HI media and cells allowed to incubate for an additional 24 hours. Cells were then lysed and mRNA expression of the siRNA target was measured by RT-qPCR (Applied Biosystems Taqman reagents). mRNA silencing activity of each Peptide conjugate was expressed as an enhancement above the baseline activity of 125 nM siRNA-IV alone with respect to the untreated cells and all siRNA target Ct values were normalized to PPIB mRNA for each well (dddCt) and summarized.
The structure of TGN-S-S-peptide is shown below and the activity data is listed in Table 5 (siRNA-IV concentration was kept at […]).

Substance | In vitro dddCt (vs. baseline SCE dose) (Targeted peptide dose 8 nM) | In vitro dddCt (vs. baseline SCE dose) (Targeted peptide dose 40 nM) | In vitro dddCt (vs. baseline SCE dose) (Targeted peptide dose 200 nM) | In vitro dddCt (vs. baseline SCE dose) (Targeted peptide dose 1000 nM) | In vitro dddCt (vs. baseline SCE dose) (Targeted peptide dose 5000 nM) | In vitro dddCt (vs. baseline SCE dose) (Targeted peptide dose 25 nM) | In vitro dddCt (vs. baseline SCE dose) (Targeted peptide dose 125 nM) | In vitro dddCt (vs. baseline SCE dose) (Targeted peptide dose 625 nM) | In vitro dddCt (vs. baseline SCE dose) (Targeted peptide dose 3125 nM)
TGN-S-S-SEQ ID NO: 1794 (D) ([dC]G[dL][dF]G[dA][dI][dE][dE][dL][dI][dE][dE]G[dL][dE][dN][dL][dI][dD][dW]G[dN]G; not fully specified (residue 1); also: TGN conjugated via disulfide at Cys1; listed as Homo sapiens) | −0.09 | −0.8 | −2.22 | −2.71 | −2.61 |  |  |  | 
TGN-S-S-SEQ ID NO: 1795 (D) ([dC]G[dF][dF]G[dE][dI][dE][dE][dL][dI][dE][dE]G[dL][dE][dN][dL][dI][dD][dW]G[dN]G; not fully specified (residue 1); also: TGN conjugated via disulfide at Cys1; listed as Homo sapiens) | −0.1 | −0.33 | −0.71 | 0.94 | −0.71 |  |  |  | 
TGN-S-S-SEQ ID NO: 1796 (D) ([dC]G[dL][dW]G[dE][dI][dE][dE][dL][dI][dE][dE]G[dL][dE][dN][dL][dI][dD][dW]G[dN]G; not fully specified (residue 1); also: TGN conjugated via disulfide at Cys1; listed as Homo sapiens) | 0.05 | −0.56 | −1.13 | −1.98 | −1.81 |  |  |  | 
TGN-S-S-SEQ ID NO: 1797 (D) ([dC]G[dL][dF]G[dE][dW][dE][dE][dL][dI][dE][dE]G[dL][dE][dN][dL][dI][dD][dW]G[dN]G; not fully specified (residue 1); also: TGN conjugated via disulfide at Cys1; listed as Homo sapiens) | 0 | 0.41 | 0.08 | 0.05 | 0.24 |  |  |  | 
TGN-S-S-SEQ ID NO: 1798 (D) ([dC]G[dL][dF]G[dE][dF][dE][dE][dL][dI][dE][dE]G[dL][dE][dN][dL][dI][dD][dW]G[dN]G; not fully specified (residue 1); also: TGN conjugated via disulfide at Cys1; listed as Homo sapiens) | −0.09 | −0.69 | −0.13 | −0.26 | −0.18 |  |  |  | 
TGN-S-S-SSEQ ID NO: 1799(D) ([dC]G[dL][dF]G[dE][dI][dE][dE][dL][dI][dE][dE]G[dL][dE][dN][dL][dL][dD][dW]G[dN]G; not fully specified (residue 1); also: TGN conjugated via disulfide at Cys1; listed as Homo sapiens) | 0.03 | −0.45 | −1.63 | −2.13 | −2.22 |  |  |  | 
TGN-S-S-Seq-ID-25 (D) ([dC][dI][dF]G[dA][dI][dA]G[dF][dI][dK][dN][dI][dW][dE]G[dL][dI][dD][dA][dF]; not fully specified (residue 1); also: disulfide-linked to TGN peptide via Cys; listed as Homo sapiens) | −0.06 | 0.2 | −0.13 | 0.01 | −1.72 |  |  |  | 
TGN-S-S-Seq-ID-37 (L) (C(TGN)IFGAIAGFIKNIWKGLIDWWYG; reading uncertain; also: disulfide-linked to TGN peptide via Cys; listed as Homo sapiens) | 0.02 | 0.14 | −0.01 | −0.19 | −0.79 |  |  |  | 
TGN-S-S-Seq-ID-54 (L) (C(TGN)FFGAIWEFIRSILEGLIDGWYGYGRKKRRQRR; reading uncertain; also: disulfide-linked to TGN peptide via Cys; listed as Homo sapiens) | 0.03 | −0.07 | −0.16 | −0.03 | 0.07 |  |  |  | 
TGN-S-S-Seq-ID-55 (L) (C(TGN)GLFHALLHLLHSLWHLLLHAWYGYGRKKRRQRR; reading uncertain; also: disulfide-linked to TGN peptide via Cys; listed as Homo sapiens) | 0.11 | 0.08 | 0.12 | 0.05 | −0.01 |  |  |  | 
TGN-S-S-Seq-ID-56 (L) (C(TGN)GLFHALLHLLHSLWHLLLHAWYGYGHKKHHQHR; reading uncertain; also: disulfide-linked to TGN peptide via Cys; listed as Homo sapiens) | 0.02 | 0.05 | −0.12 | −0.08 | −0.58 |  |  |  | 
TGN-S-S-Seq-ID-57 (L) (C(TGN)GLFGALLELLESLWKGLLEWYGRKKRRQRR; reading uncertain; also: disulfide-linked to TGN peptide via Cys; listed as Homo sapiens) | 0.1 | 0 | 0.02 | 0.1 | 0.09 |  |  |  | 
TGN-S-S-Seq-ID-58 (D) (CRRQRRKKRGYGYWGDILGEWGNEIFGEIAEFLG; not fully specified; TGN disulfide conjugate; D-amino acids; listed as Homo sapiens) | −0.05 | −0.03 | −0.25 | −0.26 | −0.3 |  |  |  | 
TGN-S-S-Seq-ID-61 (D) (CRRQRRKKRGYGYWWDILGKWGNEIFGEIAEFLG; not fully specified; TGN disulfide conjugate; D-amino acids; listed as Homo sapiens) | 0.13 | 0.08 | 0.01 | 0 | −0.55 |  |  |  | 
TGN-S-S-Seq-ID-65 (D) ([dC][dI][dF]G[dA][dI][dA]G[dF][dI][dK][dN][dI][dW][dK]; not fully specified (residue 1); also: disulfide-linked to TGN peptide via Cys; listed as Homo sapiens) | 0 | −0.73 | −1.48 | −1.88 | −2.68 |  |  |  | 
TGN-S-S-Seq-ID-111 (D) ([dC][dF][dF]G[dA][dI][dW][dE][dF][dI][dK][dS][dI][dL][dE]G[dL][dI][dD][dW][dW][dY]G[dY]G[dH][dK][dK][dH][dH][dQ][dH][dR]; not fully specified (residue 1); also: TGN conjugated via disulfide at Cys1; listed as Homo sapiens) |  |  |  |  | −1.4 |  |  |  | 
TGN-S-S-Seq-ID-115 (D) ([dC][dL][dH][dL][dL][dH][dH][dL][dL][dH][dH][dL][dH][dH][dL][dL][dH][dH][dL][dL][dH][dL][dL][dH][dH][dL][dL][dH][dH][dL]GGG[dR][dK][dK][dR][dR][dQ][dR][dR][dR][dP][dP][dQ]; not fully specified (residue 1); also: TGN conjugated via disulfide at Cys1; listed as Homo sapiens) |  |  |  |  | −0.17 |  |  |  | 
TGN-S-SEQ ID NO: 1517 (L) (CGLFGEIEELIEEGLECITLIDWWNG; cysteine pairing not given here; also: TGN-S conjugate; listed as Homo sapiens) |  |  |  |  |  | 0.54 | 0.49 | 0.48 | 0.33
